Holding throughout (format): cell-based
One data set has as its system LN18 human glioma cells. The data set is described as follows: Cytotoxicity assay (CellTiter 96 AQueous One), LN18 cells. To be noted: LN-18, 72 h, read-out: Cytotoxicity of deuterated compounds (IC50, μM). The protocol: (§1) Cytotoxicity of DiD3, DiD5, QHD3, QHD5, KRMD3, and KRMD5 was assessed in A375 human melanoma cells, LN18 human glioma cells, and H1792 human NSCLC cells.
(§2) Each compound powder was weighed and dissolved in DMSO to a concentration of 40 mM. Dissolved compounds were stored at 4° C. Drug dilutions were prepared in phenol free medium as follows:
(§3) Cell culture process: Optimum cell number for each cell line was determined and the cell number giving about 1.0 OD value after one hour of incubation with the CellTiter 96® AQueous One Solution Cell Proliferation Assay reagent (Promega) was selected for cell proliferation experiments. On Day 1, cells were trypsinized, counted, and diluted to: A375 human melanoma cells: 30000 cells/mL (3000 cells/100 μL or 3000 cells/well); LN18 human glioma cells: 50000 cells/mL (5000 cells/100 μL or 5000 cells/well); and H1792 human NSCLC cells: 12000 cells/mL (1200 cells/100 μL or 1200 cells/well).
(§4) 100 μL of cell suspension was added to 96 well plates. Rows B to G and columns 2 to 11 were seeded with cells. Outer wells around the plate were filled with 100 μL phosphate buffered saline (PBS), except wells A2 to A6, which were filled with medium without cells. Cells were then incubated 24 hours and allowed to attach.
(§5) On Day 2: drug and controls were added to the plated cells as follows: background control: medium in wells A2 to A6 was aspirated and replaced with 100 μL fresh medium; control and test dilutions: medium was carefully aspirated and 100 μL of DMSO control or diluted drug was added to 5 consecutive wells in the same row. After drug addition, plates were returned to the incubator for 48 to 72 hours.
(§6) On Day 5 or 6:20 μL of CellTiter 96® AQueous One Solution Cell Proliferation Assay reagent (Promega) was added to each control or test well, incubated 1 to 2 hours, and then OD was acquired at 490 nm.
(§7) Data analysis: the average OD from the five wells containing medium and no cells (A2 to A6) was calculated and the value subtracted from each individual OD reading. The OD readings for each drug dilution was normalized to DMSO control, set as 100% cell viability/proliferation. Log drug concentration versus percentage viability was then plotted using GraphPad Prism.

In another data set the test system is H1792 human NSCLC cells. The data set can be described thus: Cytotoxicity assay (CellTiter 96 AQueous One), H1792 cells. To be noted: NCI-H1792, 72 h, read-out: Cytotoxicity of deuterated compounds (IC50, μM). The method, then:
as §1, §2, §3, §4, §5, §6, §7

For another data set, the system named is tumors. The data set is described as follows: Activity summary of exemplary deuterated compounds (Table 1). To be noted: Table 1 summary, result in words.
Data set [1] deals with A375 human melanoma cells. The data set is described as follows: Cytotoxicity assay (CellTiter 96 AQueous One), A375 cells. Particulars: A-375, 72 h, read-out: Cytotoxicity of deuterated compounds (IC50, μM). The method, then: as §1, §2, §3, §4, §5, §6, §7
Data set [2] concerns human patient-derived cancer cell lines. The data set is described as follows: Cytotoxicity against the tested cancer cell lines (overall statement). To be noted: A375, LN18 and H1792 cells, result in words. The protocol:
as §1, §2, §3
100 μL of cell suspension was added to 96 well plates. Rows B to G and columns 2 to 11 were seeded with cells. […]
Data analysis: the average OD from the five wells containing medium and no cells (A2 to A6) was calculated and the value subtracted from each individual OD reading. The OD readings for each drug dilution was normalized to DMSO control, set as 100% cell viability/proliferation. […]

A word on the IC50: it is the concentration needed to halve the response being measured. Regarding `[2H]C([2H])([2H])N1C(=O)CN=C(c2ccccc2)c2cc(C#C)ccc21` [QHD3], the IC50 in the data set with LN18 human glioma cells was 1.81 µM; with H1792 human NSCLC cells it was 1.75 µM; in data set [1] it was 0.31 µM. Further, the Activity result with tumors is on record as “Active against tumors”.

In the case of `[2H]C([2H])([2H])N1C(=O)CN=C(c2ccccc2)c2cc(Cl)ccc21` [DiD3], the “Cytotoxicity against the tested human patient-derived cancer cell lines” value in data set [2] is recorded as “non-cytotoxic”. In addition, the outcome in the data set with tumors was Inactive.

Consider `[2H]C1([2H])N=C(c2ccccc2)c2cc(Cl)ccc2N(C([2H])([2H])[2H])C1=O` [DiD5], for which, in data set [2], the “Cytotoxicity against the tested human patient-derived cancer cell lines” value is on record as “non-cytotoxic”. The result in the data set with tumors was Inactive.

As for `[2H]C([2H])([2H])N1C(=O)CN=C(c2ccccc2F)c2cc(C#C)ccc21` [KRMD3], the values for the IC50 (in the data set with LN18 human glioma cells; in the data set with H1792 human NSCLC cells; in data set [1]) were 2.43 µM, 2.13 µM and 0.35 µM, respectively. Besides, the Activity entry with tumors was “Active against tumors”.

With `[2H]C1([2H])N=C(c2ccccc2F)c2cc(C#C)ccc2N(C([2H])([2H])[2H])C1=O` [KRMD5], the IC50 came out at 2.67 µM in the data set with LN18 human glioma cells, 2.52 µM in the data set with H1792 human NSCLC cells and 0.63 µM in data set [1]. Also, the Activity result with tumors is given as “Active against tumors”.

With `[2H]C1([2H])N=C(c2ccccc2)c2cc(C#C)ccc2N(C([2H])([2H])[2H])C1=O` [QHD5], the values for the IC50 (with LN18 human glioma cells; in the data set with H1792 human NSCLC cells; in data set [1]) were 2.51 µM, 1.98 µM and 0.46 µM, respectively. In addition, the Activity result in the data set on tumors is given as “Active against tumors”.

Values taken from patent US20250236597A1, “DEUTERATED BENZODIAZEPINE ANALOGS AND METHODS OF USE IN TREATING CANCER” (University of Cincinnati, priority 2022, published 2025).
